Literature values as cited in patent publication US8097267B2, “Moisture resistant container systems for rapidly bioavailable dosage forms” (APR Applied Pharma Research s.a., priority 2006, dated 2012).

Conditions: acidic environment

For “[(2,6-dichloro-anilino)-2-phenyl]-2-acetic acid [diclofenac potassium]”, the precipitation is listed as “tendency to precipitate in an acidic environment”.
